Entries after “also recorded” stand apart in the source; their conditions may differ.
How the values were obtained:
[1] = tested on: children with Epilepsy (seizures, neuronal agitation noise on EEG); assay: Neuroquiescence protocol (Dobutamine preparation plus sustained sedation) in children with Epilepsy, hospital case series; format: in vivo, human
[2] = tested on: patients with seizures (Epilepsy); assay: Use of Dobutamine in seizure patients before the sedation session (adults); format: in vivo, human
Description: We alternate weeks between the Neurokinin-2 (Nk2) versus the Dobutamine Infusion (Dob). We are limited to four doses of Neurokinin 2, so we distribute them among the Dobutamine doses to maximize the Neurokinin-2 counterinflammation. We use no Dobutamine on the day before or after the day of Neurokinin-2.
The traditional “intractable” Epilepsy concept is overcome by use of Dobutamine, which is about cerebrovascular bloodflow, not about suppression of seizures. Dobutamine outperforms antiseizure medications because it addresses the true root-cause of seizures.

[3] = tested on: patients (allergic reaction); assay: Anesthesia allergy test before the Neuroquiescence session
[4] = Absorption of Midazolam administered by IV
[5] = tested on: seizure and Grand mal seizure; assay: Midazolam IV for termination of seizure; format: in vivo, human; conditions: IV 0.2 mg/kg (Maximum 10 mg)
[6] = tested on: children with seizures and agitated bioelectrical brain activity; set-up: species or system human; conditions: in vivo

Row | Structure (SMILES) | children having no neuronal agitation noise, never returns ([1]; after week-six Neuroquiescence sedation session, Dobutamine continued) | children with no seizures but neuronal agitation noise still present ([1]; weeks two through five, Pre-Neuroquiescence preparation on Dobutamine, no antiseizure medication) | seizure status of adults previously taking multiple antiseizure medications ([2]; intravenous Dobutamine, before sedation session) | performance versus antiseizure medication ([2]; neuronal agitation still present during weeks of microvascular preparation) | time to seizure-free ([2]; one adult with unmanageable morning seizures for fifteen years) | neuronal agitation on EEG ([2]; same adult, a few more months, all antiseizure medications removed) | patients allergic in allergy test [3] | absorption [4] | termination of frequency of seizure and Grand mal seizure [5] | EEG monitoring and Brainscans [6] | symptoms of seizures and agitated bioelectrical brain activity [6] | symptoms of seizures and bioelectrical brain activity after Neuroquiescence [6]
1 | CC(CCc1ccc(O)cc1)NCCc1ccc(O)c(O)c1 (stereo not drawn) [Dobutamine] | over 95% | about 80% | become seizure free | consistently outperformed their antiseizure medication | seizure-free in less than one month | no neuronal agitation measurable at EEG sensitivities |  |  |  |  |  | 
2 | Cc1ncc2n1-c1ccc(Cl)cc1C(c1ccccc1F)=NC2 [Midazolam] |  |  |  |  |  |  | approximately 5% | well absorbed | effective | became normal | resolved | partial improvement; also recorded: resolved
